Data taken from US20090232793A1, “Elastase inhibitor and acute leukemia” (YEDA RESEARCH AND DEVELOPEMENT CO., LTD., priority 2004, published 2009).
The star is where a group is joined. MeOSuc = COC(=O)CCC(=O)*; CH2Cl = ClC*

Experiments:
[1] = system: AML cells, primary and cell lines; assay: in vitro transwell migration assay of AML cells; format: cell-based, human; conditions: for spontaneous migration: in absence of SDF-1, 30 min pre-treatment, data not shown
Description: (§1) (A) In vitro transwell migration assay of AML cells, either untreated or treated for 30 minutes with elastase inhibitor, 10 μg/ml EI (MeOSuc-AAPV-CMK) (A), anti elastase Abs (B) or a1-antitrypsin (a1-AT) (C). […] (D) Immunocytochemical analysis of primary AML cells on poly-L-lysine coated surfaces. Cells were pre-treated for 30 minutes with elastase inhibitor (EI) or left untreated, allowed to adhere in the absence (−) or presence of 200 ng/ml SDF-1, fixed and indirectly immunolabeled with anti-CXCR4 and anti-elastase Ab. Original magnification 100×.
Elastase inhibitor decreases SDF-1 induced migration of AML cells. To study the role of elastase in migration of AML cells, we evaluated the effect of elastase inhibition on spontaneous, or SDF-1-induced AML migration by in vitro transwell assay. The migration assay was carried out as follows: a total of […] RPMI supplemented with 10% FCS in the presence or absence of 125 ng/mL recombinant human SDF-1 (rhSDF-1) (Peprotech, Rocky Hill, N.J.) was added to the lower chamber of a Costar 24-well transwell plates with […] pore filters (Corning, N.Y.). One hundred thousand primary MNC leukemic cells or AML cell lines with or without pretreatment for 30 min. with elastase inhibitor (EI) MeOSuc-AAPV-CMK (10 μg/ml Calbiochem, La jolla, Calif.) or monoclonal mouse anti human neutrophil elastase Ab (50-100 ul of 70 μg/ml, Dako, Glostrup, Denmark) were added to the upper chamber and were allowed to migrate to the lower chamber for 4 hours at 37° C. Migrating cells were collected from the lower chamber and counted using a FACSCalibur (Becton Dickinson).

[2] = system: AML CXCR4 expression; assay: cell surface CXCR4 expression on AML cells by FACS; format: cell-based, human; conditions: data not shown
Text: To test whether the decreased migration by elastase inhibition is eventually due to reduction in CXCR4 expression, we examined the effect of elastase inhibition on AML CXCR4 expression. […] Thus, it appears that the role of elastase in migration of AML cells is not working via CXCR4 regulation.

[3] = system: primary AML cells; assay: immunocytochemical analysis of protrusions and cell polarization on poly-L-lysine; format: cell-based, human
Description: as §1
When leukemic cells were pre-treated with elastase inhibitor (EI), the formation of SDF-1 induced protrusions was prevented (FIG. 3D). Of note, basal cell polarization in absence of SDF-1 was also abolished by EI.

[4] = system: primary human AML cells; assay: homing of human AML cells to the BM of B2nmull NOD/SCID mice; format: in vivo; conditions: for homing into the NOD/SCID mice BM: 30 min incubation with EI 10 μg/ml before injection, 16 hours
Description: In order to assess the effect of elastase inhibition on the in vivo migration (or homing) of human AML cells to the BM, primary AML mononuclear cells (MNC) cells (5×10^6) were injected into sublethally irradiated B2nmull NOD/SCID mice, either untreated or after 30 minute incubation with EI […].
(§2) More specifically, human primary AML MNC, enriched CD34+ AML or CB cells at the indicated cell doses were suspended in […] RPMI with 10% FCS incubated for 30 minutes in 37° C. either with or without elastase inhibitor (10 μg/ml) before injection to mice via the dorsal tail vein. Mice were sacrificed 16 hours after transplantation, BM cells flushed from both femurs and tibias bones were harvested and resuspended into single-cell suspension. The percentage of human cells was determined by immunostaining with anti-human CD45-FITC mAB (Immuno Quality Products, Groningen, The Netherlands). Human Fc receptors were blocked with human plasma (1%) and murine Fc receptors by anti-mouse CD16-CD32 (Pharmingen) (1:50). Isotype control antibodies were used in order to exclude false positive cells (BD). After staining, the cells were analyzed on a FACS Calibur (BD) using Cell Quest software.

[5] = system: normal CB enriched CD34+ cells; assay: homing of normal CB CD34+ cells to the BM of B2nmull NOD/SCID mice; format: in vivo; conditions: normal human CD34+ enriched cells; EI pre-treated 10 μg/ml; vs untreated cells
Description: as §2
We next examined the homing of normal enriched CD34+ cells after elastase inhibition. In order to analyze similar primitive stem cell populations, CB CD34+ cells were compared to primary enriched CD34+ AML cells of three other patients (1.5-3×10^6) with different FAB subtypes. As with MNC cells from some patients, inhibition of primary enriched CD34+ AML cells was observed. […]

[6] = system: human primary AML MNC cells; assay: egress of engrafted primary AML cells from BM into the circulation of NOD/SCID mice; format: in vivo; conditions: for BM (%) human CD45+ cells / PB (%) human CD45+ cells / PB/BM: EI 1 mg x 4 days
Description: In order to test this assumption, primary AML cells (20-40×10^6) were injected into sublethally irradiated NOD/SCID mice to establish human AML-mice chimerism and AML egress from the bone marrow into the circulation was monitored, two-four weeks later, in mice treated with elastase inhibitor as compared to non treated mice.
(§3) More specifically, human primary AML MNC cells (10-30×10^6) or HL60 AML cell line (20×10^6) was injected into NOD/SCID mice. Two-four weeks later, EI (1 mg) was injected once a day for 4 consecutive days. PB from mice asphyxiated with dry ice was collected by cardiac aspiration in heparinized tubes and BM was collected as mentioned above. Percentage of human cells was determined by immunofluorescence for CD45 as described above.

[7] = system: HL60 AML cell line; assay: egress of engrafted HL60 cells from BM into the circulation of NOD/SCID mice; format: in vivo, human
Description: as §3

[8] = system: ML-2; assay: proliferation, viable cells by trypan blue exclusion; format: cell-based, human; conditions: ML2; EI 10 μg/ml; 7 days in culture
Description: (§4) To test the role of elastase in proliferation of AML cells, primary AML cells (1×10^6/ml), AML cell lines (1×10^4/ml) or normal CD34+ enriched cord blood (CB) cells (1×10^5/ml) were grown in RPMI supplemented with 10% FCS with or without elastase inhibitor (10 μg/ml). The number of viable cells was determined on days 0, 1, 3, 5 and 7 using trypan blue exclusion.
(§5) The effect of EI on the proliferative rate of primary MNC AML cells and AML cell lines (ML-2, U937) was evaluated after 3-7 days respectively in culture. […] After 7 days in culture the number of ML2 and U937 was increased and cell proliferation was inhibited by culturing cells in the presence of EI (FIG. 6A).

[9] = system: U937; assay: as above; format: cell-based, human; conditions: EI 10 μg/ml, 7 days in culture
Description: as §4, §5

[10] = system: primary AML cells; assay: as above; format: cell-based, human; conditions: primary MNC AML cells; EI 10 μg/ml; 3 days in culture
Description: as §4, §5

[11] = system: normal CD34+ enriched cord blood (CB) cells; assay: proliferation and CD34+/38- percentage of normal cord blood cells; format: cell-based, human
Description: Primary AML cells, AML cell lines and human cord blood (CB) cells with or without 10 μg/ml elastase inhibitor (EI), were cultured for 3-7 days and the number of viable cells was determined using trypan blue exclusion (A). Enriched CD34+ CB cells from full term deliveries were grown in RPMI/10% FCS with SCF, FLT3L and IL6. The percentage of CD34+/38− cells from the total enriched CD34+ CB cells cultured with and without EI was determined by FACS (B).
as §4

[12] = system: normal CB CD34+ cells; assay: cell surface elastase expression by FACS after SDF-1; format: cell-based, human; conditions: SDF-1 200 ng/ml for 1 and 3 hours
Description: (§6) Cell surface elastase on primary AML and cell lines or on normal CB CD34+ enriched cells was analyzed by flow cytometry as follows: AML cells were incubated with polyclonal rabbit anti-human elastase (Biodesign, Kennebunkport, Me.) for 30 min., washed and antibody binding was detected using secondary anti-rabbit-FITC (FIG. 2A upper panel and 2B).
(§7) In order to confirm our assumption, primary AML cells and normal CB CD34+ cells were treated with SDF-1 (200 ng/ml) for 1 and 3 hours, and expression of cell surface elastase was determined by FACS (FIG. 7).

[13] = system: primary AML cells; assay: as above; format: cell-based, human; conditions: SDF-1 200 ng/ml for 1 and 3 hours
Description: as §6, §7

## MeOSuc-AAPV-CH2Cl [EI]
[1]
  spontaneous migration: also reduced
[1]; pre-incubation 30 min with 5-10 μg/ml EI, toward 125 ng/ml SDF-1, 4 hours, p=0.039
  SDF-1 dependent migration of the cells: significantly reduced
[2]
  level of cell surface CXCR4 expression: did not change
[3]; 30 min pre-treatment, 200 ng/ml SDF-1
  formation of SDF-1 induced protrusions: prevented
[3]; in absence of SDF-1
  basal cell polarization: abolished
[4]; M2 and M4 primary AML cells, vs untreated cells
  homing into the NOD/SCID mice BM: significantly decreased
[4]; enriched CD34+ AML progenitors, EI pre-treated 10 μg/ml, vs untreated cells
  homing to the murine BM: decreased
[4]; primary M1 and M5 AML cells
  homing into the NOD/SCID mice BM: not inhibited but rather increased
[5]
  homing to the murine BM: increased
[6]; human primary cells, EI 1 mg once a day, 4 consecutive days, vs untreated mice
  AML cell egress to the PB: decreased
[6]; patient #1 M2
  BM (%) human CD45+ cells: 80%
  PB (%) human CD45+ cells: 6%
  PB/BM: 0.07
[6]; patient #2 M4
  BM (%) human CD45+ cells: 50%
  PB (%) human CD45+ cells: 2.5%
  PB/BM: 0.05
[6]; patient #3 M4
  BM (%) human CD45+ cells: 12.7%
  PB (%) human CD45+ cells: 0.5%
  PB/BM: 0.039
[6]; patient #4
  BM (%) human CD45+ cells: 16.9%
  PB (%) human CD45+ cells: 0.25%
  PB/BM: 0.014
[7]; HL-60, EI 1 mg x 4 days
  BM (%) human CD45+ cells: 4%
  PB (%) human CD45+ cells: 2.4%
  PB/BM: 0.6
[7]; human AML line, EI 1 mg once a day, 4 consecutive days, vs untreated mice
  AML cell egress to the PB: decreased
[8]
  cell proliferation: inhibited
[9]
  cell proliferation: inhibited
[10]
  number of viable AML cells: significantly decreased
[11]; 3 days in culture in the presence of cytokines (SCF, FLT3L, IL6) and EI
  percentage of primitive progenitor cells CD34+/38−: significantly increased
[11]; normal CB CD34+ cells, EI 10 μg/ml
  proliferation rate: enhanced

## SDF-1: chemokine, also called pre-B-cell growth-stimulating factor; recombinant human SDF-1 (Peprotech)
[12]
  cell surface elastase expression: decreases
[13]
  cell surface elastase expression: increase

## a1-antitrypsin
[1]
  spontaneous migration: affected
